We go through 11 compounds from ChEMBL document CHEMBL3991601, “The target landscape of clinical kinase drugs” (Science, 2017).

Molecules are shown by their SMILES. Active and inactive are the calls of the source.

In general, Kd refers to the equilibrium constant for the complex coming apart.

The target of test [1] is Cyclin-dependent kinase 4 (Homo sapiens, UniProt P11802).
Test [2] has as its target T1, Cytochrome c1, heme protein, mitochondrial (Homo sapiens, UniProt P08574).
T1 sequence (P08574 whole entry): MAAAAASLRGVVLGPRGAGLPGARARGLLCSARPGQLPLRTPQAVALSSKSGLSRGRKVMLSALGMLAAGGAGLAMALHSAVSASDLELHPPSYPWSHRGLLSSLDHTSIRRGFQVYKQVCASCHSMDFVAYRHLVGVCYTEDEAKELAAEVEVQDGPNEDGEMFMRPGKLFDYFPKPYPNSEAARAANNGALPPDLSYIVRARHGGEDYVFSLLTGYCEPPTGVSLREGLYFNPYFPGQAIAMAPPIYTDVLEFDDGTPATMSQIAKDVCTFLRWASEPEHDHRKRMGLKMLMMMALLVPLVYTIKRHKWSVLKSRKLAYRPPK

For test [3], the target named is T2, Discoidin domain-containing receptor 2 (Homo sapiens, UniProt Q16832).
T2 sequence (Q16832 whole entry): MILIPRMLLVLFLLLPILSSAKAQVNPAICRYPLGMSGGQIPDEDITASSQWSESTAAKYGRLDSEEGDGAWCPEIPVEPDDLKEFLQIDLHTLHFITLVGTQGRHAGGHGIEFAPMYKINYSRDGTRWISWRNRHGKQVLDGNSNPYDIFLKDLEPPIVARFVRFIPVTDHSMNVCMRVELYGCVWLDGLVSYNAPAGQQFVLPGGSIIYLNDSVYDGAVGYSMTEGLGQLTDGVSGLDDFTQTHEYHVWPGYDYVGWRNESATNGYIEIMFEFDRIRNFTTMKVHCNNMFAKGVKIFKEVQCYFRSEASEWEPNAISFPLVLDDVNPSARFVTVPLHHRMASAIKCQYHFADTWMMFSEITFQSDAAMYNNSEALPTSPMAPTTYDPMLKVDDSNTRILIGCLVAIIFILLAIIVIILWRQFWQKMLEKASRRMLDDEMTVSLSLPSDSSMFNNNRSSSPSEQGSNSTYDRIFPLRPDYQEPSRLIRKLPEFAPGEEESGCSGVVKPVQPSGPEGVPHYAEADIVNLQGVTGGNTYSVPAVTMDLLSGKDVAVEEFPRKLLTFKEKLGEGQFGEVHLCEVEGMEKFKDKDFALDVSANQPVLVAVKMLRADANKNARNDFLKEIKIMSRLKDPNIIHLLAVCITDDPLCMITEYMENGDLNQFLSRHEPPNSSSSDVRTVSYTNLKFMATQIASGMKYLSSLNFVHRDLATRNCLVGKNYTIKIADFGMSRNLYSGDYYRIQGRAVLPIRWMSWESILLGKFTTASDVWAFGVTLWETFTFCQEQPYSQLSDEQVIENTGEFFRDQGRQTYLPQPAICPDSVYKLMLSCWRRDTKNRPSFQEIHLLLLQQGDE

The target in test [4] is Serine/threonine-protein kinase/endoribonuclease IRE1 (Homo sapiens, UniProt O75460).
Chain of Serine/threonine-protein kinase/endoribonuclease IRE1 (O75460 whole entry): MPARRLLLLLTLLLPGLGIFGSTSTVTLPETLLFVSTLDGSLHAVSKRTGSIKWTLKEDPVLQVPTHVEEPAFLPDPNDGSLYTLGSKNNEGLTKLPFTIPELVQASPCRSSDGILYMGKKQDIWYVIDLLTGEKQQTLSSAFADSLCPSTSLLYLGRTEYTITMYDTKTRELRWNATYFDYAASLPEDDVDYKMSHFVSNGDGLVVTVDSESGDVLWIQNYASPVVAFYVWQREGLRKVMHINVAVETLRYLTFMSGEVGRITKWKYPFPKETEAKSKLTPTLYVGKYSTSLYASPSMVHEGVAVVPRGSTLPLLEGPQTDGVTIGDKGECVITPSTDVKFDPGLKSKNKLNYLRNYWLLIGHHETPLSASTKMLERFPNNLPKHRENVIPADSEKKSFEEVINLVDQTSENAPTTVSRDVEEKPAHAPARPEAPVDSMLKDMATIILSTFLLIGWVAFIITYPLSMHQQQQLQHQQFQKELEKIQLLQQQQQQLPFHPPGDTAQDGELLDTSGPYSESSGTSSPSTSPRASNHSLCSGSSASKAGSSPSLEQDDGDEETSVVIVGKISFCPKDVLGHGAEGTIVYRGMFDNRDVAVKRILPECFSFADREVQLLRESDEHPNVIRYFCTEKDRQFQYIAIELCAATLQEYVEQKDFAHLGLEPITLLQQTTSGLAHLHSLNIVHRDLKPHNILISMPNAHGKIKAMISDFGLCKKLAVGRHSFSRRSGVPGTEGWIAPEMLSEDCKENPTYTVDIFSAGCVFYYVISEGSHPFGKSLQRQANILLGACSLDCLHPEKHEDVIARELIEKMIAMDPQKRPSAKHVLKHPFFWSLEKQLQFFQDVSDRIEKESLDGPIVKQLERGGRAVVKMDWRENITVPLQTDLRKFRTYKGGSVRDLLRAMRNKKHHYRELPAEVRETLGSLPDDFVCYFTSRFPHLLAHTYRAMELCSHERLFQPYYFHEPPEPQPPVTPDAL
Test [5] has as its target Tyrosine-protein kinase FRK (Homo sapiens, UniProt P42685).
The target in the next test is T3, Heme oxygenase 2 (Homo sapiens, UniProt P30519).
T3 sequence (P30519 whole entry): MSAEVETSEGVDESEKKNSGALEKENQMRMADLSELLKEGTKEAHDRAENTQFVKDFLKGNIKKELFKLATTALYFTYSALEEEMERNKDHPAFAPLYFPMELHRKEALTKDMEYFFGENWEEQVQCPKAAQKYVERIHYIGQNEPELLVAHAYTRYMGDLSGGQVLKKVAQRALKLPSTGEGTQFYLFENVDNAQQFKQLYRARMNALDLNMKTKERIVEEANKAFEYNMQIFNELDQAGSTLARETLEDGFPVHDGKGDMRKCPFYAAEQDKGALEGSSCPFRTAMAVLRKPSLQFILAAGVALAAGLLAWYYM

In test [6] the target is cAMP-dependent protein kinase catalytic subunit beta (Homo sapiens, UniProt P22694).
The target in test [7] is T4, Ras-related protein Rab-10 (Homo sapiens, UniProt P61026).
T4 sequence (P61026 whole entry): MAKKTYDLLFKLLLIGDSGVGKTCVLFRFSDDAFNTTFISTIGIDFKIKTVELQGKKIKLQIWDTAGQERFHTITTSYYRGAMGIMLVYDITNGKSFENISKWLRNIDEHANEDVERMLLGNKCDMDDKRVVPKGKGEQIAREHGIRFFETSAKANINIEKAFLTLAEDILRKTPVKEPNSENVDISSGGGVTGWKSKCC
Also: in the data inactive means no Kd found up to 30 µM.

Chain of Tyrosine-protein kinase FRK (P42685 whole entry): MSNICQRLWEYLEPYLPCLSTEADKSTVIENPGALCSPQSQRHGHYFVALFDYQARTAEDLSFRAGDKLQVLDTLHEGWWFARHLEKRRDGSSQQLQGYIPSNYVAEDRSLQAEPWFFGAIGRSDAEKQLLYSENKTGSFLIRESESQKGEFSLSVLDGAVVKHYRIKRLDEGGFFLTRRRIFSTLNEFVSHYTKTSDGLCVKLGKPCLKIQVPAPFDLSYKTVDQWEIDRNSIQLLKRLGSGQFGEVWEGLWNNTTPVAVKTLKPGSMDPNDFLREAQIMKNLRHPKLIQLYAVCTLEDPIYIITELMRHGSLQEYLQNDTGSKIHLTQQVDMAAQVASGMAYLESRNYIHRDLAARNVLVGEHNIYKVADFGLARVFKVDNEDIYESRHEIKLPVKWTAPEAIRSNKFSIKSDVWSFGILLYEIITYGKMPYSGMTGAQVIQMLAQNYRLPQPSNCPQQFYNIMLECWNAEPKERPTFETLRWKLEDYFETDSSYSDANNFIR
Chain of Cyclin-dependent kinase 4 (P11802 whole entry): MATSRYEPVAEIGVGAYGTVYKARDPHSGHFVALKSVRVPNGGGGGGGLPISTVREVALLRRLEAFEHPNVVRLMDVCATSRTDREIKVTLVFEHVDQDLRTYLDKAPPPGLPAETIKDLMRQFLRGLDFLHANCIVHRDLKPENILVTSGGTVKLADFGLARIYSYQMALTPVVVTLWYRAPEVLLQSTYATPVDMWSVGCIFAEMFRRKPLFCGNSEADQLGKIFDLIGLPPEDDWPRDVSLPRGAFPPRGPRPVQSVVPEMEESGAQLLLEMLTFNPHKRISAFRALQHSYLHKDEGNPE

Consider `COc1cc2nccc(Oc3ccc(NC(=O)C4(C(=O)Nc5ccc(F)cc5)CC4)cc3)c2cc1OC` [CABOZANTINIB], for which the Kd in test [1] is > 30 µM (inactive); in test [2], > 30 µM (inactive); in test [3], 0.501 µM (active); in test [4], > 30 µM (inactive); in test [5], 0.56 µM (active); at Heme oxygenase 2, > 30 µM (inactive). Moreover, the Kd in test [6] and in test [7] was > 30 µM (inactive) throughout.

For the compound `Cc1c(Cn2c(C)nc3c(C(=O)O)cc(N4CCOCC4)cc32)cccc1C(F)(F)F` [GSK-2636771], the Kd (in test [1]; in test [2]; in test [3]; in test [4]; in test [5]; at Heme oxygenase 2) was > 30 µM (inactive) in each case. In addition, the Kd in test [6] and in test [7] was > 30 µM (inactive) throughout.

For `Cc1cc(Nc2nc(N[C@@H](C)c3ncc(F)cn3)ncc2Cl)n[nH]1` [AZD-1480], the Kd (in test [1]; in test [2]; in test [3]; in test [4]; in test [5]; at Heme oxygenase 2) was > 30 µM (inactive) in each case. The Kd in test [6] and in test [7] was > 30 µM (inactive) throughout.

For the compound `Cc1ccc(C(=O)Nc2ccc(Oc3cc4cnn(C)c4cc3-c3cn[nH]c3)c(F)c2)c(=O)n1-c1ccc(F)cc1` [MERESTINIB], the Kd in test [1] was > 30 µM (inactive); in test [2] it was > 30 µM (inactive); in test [3] it was 0.908 µM (active); in test [4], > 30 µM (inactive); in test [5], > 30 µM (inactive); on Heme oxygenase 2 it was > 30 µM (inactive). Besides, the Kd in test [6] and in test [7] was > 30 µM (inactive) in each case.

As for `CNC(=O)c1cc(COc2nnc(Nc3ccc(Cl)cc3)c3ccoc23)ccn1` [TELATINIB], the Kd (in test [1]; in test [2]; in test [3]; in test [4]; in test [5]; on Heme oxygenase 2) was > 30 µM (inactive) each time. The Kd in test [6] and in test [7] was > 30 µM (inactive) throughout.

For `CNC(=O)c1cccc(-c2ccc3c(N4CCOC[C@@H]4C)nc(N4CCOC[C@@H]4C)nc3n2)c1` [VISTUSERTIB], the Kd (in test [1]; in test [2]; in test [3]; in test [4]; in test [5]; at Heme oxygenase 2) was > 30 µM (inactive) throughout. Further, the Kd in test [6] and in test [7] was > 30 µM (inactive) throughout.

In the case of `O=C(NC[C@H](O)CO)c1ccncc1Nc1ccc(I)cc1F` [PIMASERTIB], the Kd (in test [1]; in test [2]; in test [3]; in test [4]; in test [5]; at Heme oxygenase 2) was > 30 µM (inactive) throughout. In addition, the Kd in test [6] and in test [7] was > 30 µM (inactive) throughout.

For the compound `O=C(NOC[C@H](O)CO)c1ccc(F)c(F)c1Nc1ccc(I)cc1F` [MIRDAMETINIB], the Kd (in test [1]; in test [2]; in test [3]; in test [4]; in test [5]; at Heme oxygenase 2) was > 30 µM (inactive) each time. Further, the Kd in test [6] and in test [7] was > 30 µM (inactive) each time.

For the compound `CC1(COc2ccc3c(c2)ncn3-c2ccc3cccc(N4CCC(N)CC4)c3n2)COC1` [CRENOLANIB], the Kd (in test [1]; in test [2]; in test [3]; in test [4]; in test [5]; on Heme oxygenase 2) was > 30 µM (inactive) in each case. Further, the Kd in test [6] and in test [7] was > 30 µM (inactive) throughout.

As to `COc1ccc2c(OCc3nnc4ccc(-c5ccccc5)nn34)ccnc2c1` [AMG-208], the Kd (in test [1]; in test [2]; in test [3]; in test [4]; in test [5]; on Heme oxygenase 2) was > 30 µM (inactive) in each case. The Kd in test [6] and in test [7] was > 30 µM (inactive) in each case.

As for `COc1ccc(-c2ccc3ncc4c(c3c2)n(-c2ccc(N3CCNCC3)c(C(F)(F)F)c2)c(=O)n4C)cn1` [BGT-226 FREE BASE], the Kd (in test [1]; in test [2]; in test [3]; in test [4]; in test [5]; on Heme oxygenase 2) was > 30 µM (inactive) in each case. For the same compound, the Kd in test [6] and in test [7] was > 30 µM (inactive) in each case.
